In paper PMC10800708, “Efficacies and ADME properties of redox active methylene blue and phenoxazine analogues for use in new antimalarial triple drug combinations with amino-artemisinins” (Frontiers in Pharmacology, 2024):
Where “and” joins values, the source holds several entries; their conditions need not be identical. Equal values may be shown once. Read-outs that look alike come from different tables or passages of the source.

Assays:
[1] = system: Chinese Hamster Ovary (CHO) cell line, CHO-K1; experiment: MTT cytotoxicity assay; assay type: cell-based; conditions: for IC50: Cricetulus griseus, CHO cells, MTT; for Selectivity index CHO/resistant Pf strain: cytotoxicity IC50/activity IC50, CHO/DD2; for Selectivity index CHO/sensitive Pf strain: cytotoxicity IC50/activity IC50, CHO/NF54
Protocol: Cytotoxicity assays were conducted against the Chinese Hamster Ovary (CHO) cell line, ATCC CCL-61, strain CHO-K1. […] Cells were grown at 37°C in a humidified atmosphere of 5% CO2 and maintained by passage. Cells lines were seeded in 96-well microtitre plates at 10^4 cells/well in cell medium. […] DMSO (100 µL) was added to dissolve the MTT formazan precipitate, and the plates were gently agitated for 2 min to ensure homogeneity. Absorbance was measured at 540 nm using a Turner BioSystems, Inc. ModulusTM II Microplate Reader. The data were analyzed by nonlinear regression analysis using the GraphPad PRISM version 5.00 program to determine the IC50 of each compound.

[2] = Metabolic stability in mouse liver microsomes; assay type: in vitro ADME
Protocol: (§1) Eq. 4 Predicted t1/2 t1/2=−0.693/λ (4) Where λ is the slope of the Ln % parent remaining vs. time curve. • v. Plasma protein binding. Plasma protein binding was determined in pooled human plasma using an ultracentrifugation method. Stock solutions of test compounds (10 mM) were diluted in phosphate buffer and spiked into plasma in deep well 96-well plates (10 µM). An aliquot of each compound was immediately precipitated with ice cold acetonitrile containing the internal standard carbamazepine (0.1 μM). These served as total concentration samples. After incubation in a water bath at 37°C for 1 h, the samples were transferred to ultracentrifuge tubes in duplicate and centrifuged for 4 h at 37°C and 30,000 g (Optima L-80XP, Beckman). Following centrifugation, the supernatant was transferred to the plate containing the total concentration samples and precipitated with ice cold acetonitrile containing the internal standard. Analyte concentrations of all compounds were determined via LC-MS/MS (reverse phase Gemini NX-C18 column and Shimadzu HPLC coupled with an AB Sciex 3200 Q TRAP MS) as described above. • vi. Metabolic stability. A 5-point metabolic stability assay in human and mouse liver microsomes were performed in duplicate in 96-well plates. […] The cofactor NADPH was added, and the reactions were subsequently stopped at time points 5, 10, 30 and 60 min by removal of an aliquot and quenching with ice cold acetonitrile containing the internal standard. The supernatant of all samples was analysed via LC-MS/MS analysis (reverse phase Gemini NX-C18 column and Shimadzu HPLC and AB Sciex 3200 Q TRAP MS) as described above.

[3] = In vivo PK, iv and oral, whole blood; parameters: species or system C57BL/6 mice; conditions: for Vd / clearance / half-life / Cmax / Tmax: C57BL/6, mouse; for Vd / clearance / half-life / AUC0-∞ / Oral Cmax relative to the IC50 value / BA: mice; for Cmax / Tmax: po, 5 mg/kg; for BA: oral bioavailability
Protocol: • i. Animals. […] Food and water were available ad libitum. Mice were acclimatised to the experimental environment for 4-5 days prior to initiating the experiments. • ii. Oral drug administration. AD01 and PhX6 were prepared in 100% Millipore […] prepared in an aqueous suspension of 0.5% HPMC (w/v) containing 0.2% Tween 80 (v/v). The weighed compounds were sonicated and vortexed to ensure all solutions were homogenous. […] The total volume per administration was 200 μL. Blood samples were collected post-dose in lithium heparin microvials via tail bleeding at predetermined intervals at 0.5, 1, 3, 5, 8, 10 and 24 h. Samples were gently vortexed and stored at -80°C until analysis. • iii. Intravenous administration. AD01 and PhX6 were prepared in 100% Millipore […] prepared in an organic vehicle consisting of 10% N,N-dimethylacetamide, 30% polyethylene glycol 400 (PEG), 50% polypropylene glycol (PPG) and 10% ethanol (1:3:5:1, v/v) for intravenous (iv) dosing at 10 mg/kg. The total volume of administration was 80 μL. Blood samples were collected post-dose in lithium heparin microvials via tail bleeding at predetermined intervals at 0.16, 0.5, 1, 3, 5, 8, 10 and 24 h. Samples were gently vortexed and stored at -80°C until analysis. • iv. Sample processing and analysis. […] The mixture was vortexed vigorously for 1 min, and 5 μL of the supernatant were injected onto the analytical column following centrifugation (5590 g for 5 min). A Shimadzu HPLC and reverse phase Gemini NX-C18 column coupled to an AB Sciex 3200 Q TRAP MS was operated at unit resolution in the multiple reaction monitoring (MRM) mode as described above. […] Data analysis. Drug concentration versus time plots for each compound were used to determine maximal drug concentration C max, time T max to reach C max, elimination half-life t 1/2 and the area under the concentration-time curve from time zero to infinity, AUC0-inf. From these values the PK parameters clearance CL, volume of distribution Vd and oral bioavailability BA were determined using the non-compartmental analysis Microsoft Excel Add-In PKSolver ([Zhang et al., 2010]).

[4] = Metabolic stability in human liver microsomes; assay type: in vitro ADME
Protocol: as §1

[5] = Plasma protein binding, ultracentrifugation; assay type: in vitro ADME; conditions: pooled human plasma
[6] = 10 mg/kg, intravenous, whole blood
[7] = whole blood, iv, 10 mg/kg, intravenous, whole blood, read-out: t1/2 (converted)
[8] = oral gavage: AD01 4.6, PhX6 4.5, DpNEt 5 mg/kg

Compound	IC50 [1] [µM]	Selectivity index CHO/resistant Pf strain [1]	Selectivity index CHO/sensitive Pf strain [1]	CLint scaled [2] [mL/min/kg]	Vd [3, 6] [L/kg]	clearance [3, 6] [mL/min/kg]	half-life [3, 7] [min]	Cmax ([3]; whole blood) [nM]	Tmax ([3]; whole blood) [min]	AUC0-∞ ([3]; intravenous, whole blood) [µmol·min/L]	Oral Cmax relative to the IC50 value [3] [fold]	BA [3]	AUC0-∞ [3, 8]	CLint scaled [4] [mL/min/kg]	half-life ([3]; whole blood, two-compartment behaviour, read-out: Distribution half-life) [min]	fraction unbound at 1 h, 10 µM [5]
CCN(CC)c1ccc2nc3ccc(=[N+](CC)CC)cc-3sc2c1 [AD01]	74 ± 9.4	>1,000	>1,000	80.6	16.2 ± 1.73	74.4 ± 6.68	151 ± 4.2	250 ± 50	52.8 ± 7.8	186 ± 15	~10	15% and 15 ± 4%	101 ± 19 µmol·min/L	16.2		
CCN(CC)c1ccc2nc3c4ccccc4/c(=N\c4ccccn4)cc-3oc2c1 [PhX6]	192 ± 4.6	>1,000	>1,000	88.2	14.9 ± 2.09	21.5 ± 1.76	478 ± 43.8	3450 ± 680	48 ± 7.2	540 ± 44	~100	60% and 60 ± 12%	1,150 ± 216 min∙µmol/L	20.2	26	0.1
